# Measured values from publication PMC3399817 (PLoS ONE, 2012).
# Tests used:
# Test in all cases: KINOMEscan
# Type in all cases: binding
# [1] = biological target: T1, VRK2 (Homo sapiens, UniProt Q86Y07); details: VRK2, 1 uM
# T1 construct: purchased Ambit KINOMEscan (DiscoverX)
# Summary of the method: (§1)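 First-pass selectivity screen: compound at 1 μM, endpoint is whether substrate binding to each kinase is suppressed.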
# [2] = biological target: T2, DCAMKL2 (Homo sapiens, UniProt Q8N568); details: DCAMKL2, 1 uM
# T2 construct: purchased Ambit KINOMEscan (DiscoverX)
# T2 sequence (Q8N568 whole entry): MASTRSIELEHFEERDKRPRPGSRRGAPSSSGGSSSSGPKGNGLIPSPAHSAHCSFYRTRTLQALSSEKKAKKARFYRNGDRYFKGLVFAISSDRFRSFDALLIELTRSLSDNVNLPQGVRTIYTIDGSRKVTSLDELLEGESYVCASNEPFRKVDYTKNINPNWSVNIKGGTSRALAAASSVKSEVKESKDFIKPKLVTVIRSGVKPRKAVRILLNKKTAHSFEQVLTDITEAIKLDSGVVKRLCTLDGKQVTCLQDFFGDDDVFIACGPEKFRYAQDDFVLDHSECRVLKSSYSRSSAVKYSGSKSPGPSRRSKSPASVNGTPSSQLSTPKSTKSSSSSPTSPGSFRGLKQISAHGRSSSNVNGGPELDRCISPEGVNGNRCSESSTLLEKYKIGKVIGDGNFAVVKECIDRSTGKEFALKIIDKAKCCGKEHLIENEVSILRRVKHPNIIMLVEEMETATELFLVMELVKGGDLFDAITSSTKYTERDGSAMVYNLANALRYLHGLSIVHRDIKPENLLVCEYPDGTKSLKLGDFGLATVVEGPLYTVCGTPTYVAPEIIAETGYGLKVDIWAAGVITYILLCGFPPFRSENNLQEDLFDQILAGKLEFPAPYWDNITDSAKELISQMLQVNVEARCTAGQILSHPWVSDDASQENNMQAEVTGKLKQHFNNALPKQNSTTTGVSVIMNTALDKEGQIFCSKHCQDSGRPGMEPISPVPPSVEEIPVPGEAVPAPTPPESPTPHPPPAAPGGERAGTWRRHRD
# Summary of the method: as §1
# [3] = biological target: T3, RIPK5 (Homo sapiens, UniProt Q6XUX3); details: RIPK5, 1 uM
# T3 construct: purchased Ambit KINOMEscan (DiscoverX)
# Summary of the method: as §1
# [4] = biological target: T4, EPHA7 (Homo sapiens, UniProt Q15375); details: EPHA7, 1 uM
# T4 construct: purchased Ambit KINOMEscan (DiscoverX)
# Summary of the method: as §1
# [5] = biological target: T5, CDK4-cyclinD1 (Homo sapiens, UniProt P11802); details: CDK4-cyclinD1, 1 uM
# T5 construct: purchased Ambit KINOMEscan (DiscoverX)
# Summary of the method: as §1
# [6] = biological target: T6, CAMK2B (Homo sapiens, UniProt Q13554); details: 1 uM
# T6 construct: purchased Ambit KINOMEscan (DiscoverX)
# Summary of the method: as §1
# [7] = biological target: T7, KIT(A829P) (Homo sapiens, UniProt P10721, A829P); details: 1 uM
# T7 construct: purchased Ambit KINOMEscan (DiscoverX)
# T7 sequence (P10721 26-976 A829P): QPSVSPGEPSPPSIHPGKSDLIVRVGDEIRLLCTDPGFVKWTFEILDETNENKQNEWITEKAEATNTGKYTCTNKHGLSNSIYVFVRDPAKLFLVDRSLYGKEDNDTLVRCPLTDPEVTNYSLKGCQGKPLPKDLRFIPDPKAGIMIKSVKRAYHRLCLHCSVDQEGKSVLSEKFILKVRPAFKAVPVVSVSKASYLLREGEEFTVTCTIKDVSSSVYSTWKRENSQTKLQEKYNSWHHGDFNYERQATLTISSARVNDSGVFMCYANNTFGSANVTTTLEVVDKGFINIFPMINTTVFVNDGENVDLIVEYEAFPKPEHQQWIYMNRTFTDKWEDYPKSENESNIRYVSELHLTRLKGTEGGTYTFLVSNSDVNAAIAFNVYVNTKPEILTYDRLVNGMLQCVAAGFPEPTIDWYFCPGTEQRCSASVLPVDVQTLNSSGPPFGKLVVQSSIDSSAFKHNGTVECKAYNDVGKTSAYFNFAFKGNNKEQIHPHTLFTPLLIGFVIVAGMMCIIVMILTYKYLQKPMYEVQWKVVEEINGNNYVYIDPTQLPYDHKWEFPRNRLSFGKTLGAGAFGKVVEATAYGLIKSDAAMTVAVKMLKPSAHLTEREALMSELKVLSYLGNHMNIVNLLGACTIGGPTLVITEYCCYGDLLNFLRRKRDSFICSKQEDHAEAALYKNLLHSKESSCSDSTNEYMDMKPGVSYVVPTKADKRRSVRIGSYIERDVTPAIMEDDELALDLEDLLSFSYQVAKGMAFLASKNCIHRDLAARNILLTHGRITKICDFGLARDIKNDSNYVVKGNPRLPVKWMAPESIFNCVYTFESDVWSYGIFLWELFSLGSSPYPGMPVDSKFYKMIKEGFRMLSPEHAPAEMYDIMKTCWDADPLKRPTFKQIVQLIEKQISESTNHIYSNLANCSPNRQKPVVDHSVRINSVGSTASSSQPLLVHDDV
# Summary of the method: as §1
# [8] = biological target: T8, ABL1(F317I)-phosphorylated (Homo sapiens, UniProt P00519, F317I); details: 1 uM
# T8 construct: purchased Ambit KINOMEscan (DiscoverX)
# Summary of the method: as §1
# [9] = biological target: T9, PIK3CA(H1047L) (Homo sapiens, UniProt P42336, H1047L); details: 1 uM
# T9 construct: purchased Ambit KINOMEscan (DiscoverX)
# Summary of the method: as §1
# [10] = biological target: T10, CSNK1A1L (Homo sapiens, UniProt Q8N752); details: 1 uM
# T10 construct: purchased Ambit KINOMEscan (DiscoverX)
# Summary of the method: as §1
# [11] = biological target: T11, ABL1(F317L)-phosphorylated (Homo sapiens, UniProt P00519, F317L); details: 1 uM
# T11 construct: purchased Ambit KINOMEscan (DiscoverX)
# Summary of the method: as §1
# [12] = biological target: T12, SNRK (Homo sapiens, UniProt Q9NRH2); details: 1 uM
# T12 construct: purchased Ambit KINOMEscan (DiscoverX)
# Summary of the method: as §1
# [13] = biological target: T13, LRRK2(G2019S) (Homo sapiens, UniProt Q5S007, G2019S); details: 1 uM
# T13 construct: purchased Ambit KINOMEscan (DiscoverX)
# Summary of the method: as §1
# [14] = biological target: T14, PIP5K2C (Homo sapiens, UniProt Q8TBX8); details: 1 uM
# T14 construct: purchased Ambit KINOMEscan (DiscoverX)
# T14 sequence (Q8TBX8 whole entry): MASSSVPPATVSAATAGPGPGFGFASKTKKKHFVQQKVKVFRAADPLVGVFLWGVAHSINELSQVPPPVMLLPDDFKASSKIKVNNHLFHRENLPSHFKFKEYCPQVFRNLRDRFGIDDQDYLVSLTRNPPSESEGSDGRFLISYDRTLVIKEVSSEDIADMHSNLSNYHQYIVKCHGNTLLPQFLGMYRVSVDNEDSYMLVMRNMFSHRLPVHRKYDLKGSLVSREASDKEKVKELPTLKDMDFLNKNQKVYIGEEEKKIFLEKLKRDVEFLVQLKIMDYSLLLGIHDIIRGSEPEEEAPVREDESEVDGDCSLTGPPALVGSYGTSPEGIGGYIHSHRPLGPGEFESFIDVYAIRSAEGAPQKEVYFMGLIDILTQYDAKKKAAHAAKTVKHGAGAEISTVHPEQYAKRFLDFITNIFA
# Summary of the method: as §1
# [15] = biological target: T15, EGFR(L747-S752del, P753S) (Homo sapiens, UniProt P00533, DEL747-752/P753S); details: 1 uM
# T15 construct: purchased Ambit KINOMEscan (DiscoverX)
# Summary of the method: as §1
# [16] = biological target: T16, FLT3(D835Y) (Homo sapiens, UniProt P36888, D835Y); details: 1 uM
# T16 construct: purchased Ambit KINOMEscan (DiscoverX)
# Summary of the method: as §1
# [17] = biological target: T17, MET(M1250T) (Homo sapiens, UniProt P08581, M1250T); details: 1 uM
# T17 construct: purchased Ambit KINOMEscan (DiscoverX)
# Summary of the method: as §1
# [18] = biological target: T18, EGFR(T790M) (Homo sapiens, UniProt P00533, T790M); details: 1 uM
# T18 construct: purchased Ambit KINOMEscan (DiscoverX)
# T18 sequence (P00533 25-1210 T790M): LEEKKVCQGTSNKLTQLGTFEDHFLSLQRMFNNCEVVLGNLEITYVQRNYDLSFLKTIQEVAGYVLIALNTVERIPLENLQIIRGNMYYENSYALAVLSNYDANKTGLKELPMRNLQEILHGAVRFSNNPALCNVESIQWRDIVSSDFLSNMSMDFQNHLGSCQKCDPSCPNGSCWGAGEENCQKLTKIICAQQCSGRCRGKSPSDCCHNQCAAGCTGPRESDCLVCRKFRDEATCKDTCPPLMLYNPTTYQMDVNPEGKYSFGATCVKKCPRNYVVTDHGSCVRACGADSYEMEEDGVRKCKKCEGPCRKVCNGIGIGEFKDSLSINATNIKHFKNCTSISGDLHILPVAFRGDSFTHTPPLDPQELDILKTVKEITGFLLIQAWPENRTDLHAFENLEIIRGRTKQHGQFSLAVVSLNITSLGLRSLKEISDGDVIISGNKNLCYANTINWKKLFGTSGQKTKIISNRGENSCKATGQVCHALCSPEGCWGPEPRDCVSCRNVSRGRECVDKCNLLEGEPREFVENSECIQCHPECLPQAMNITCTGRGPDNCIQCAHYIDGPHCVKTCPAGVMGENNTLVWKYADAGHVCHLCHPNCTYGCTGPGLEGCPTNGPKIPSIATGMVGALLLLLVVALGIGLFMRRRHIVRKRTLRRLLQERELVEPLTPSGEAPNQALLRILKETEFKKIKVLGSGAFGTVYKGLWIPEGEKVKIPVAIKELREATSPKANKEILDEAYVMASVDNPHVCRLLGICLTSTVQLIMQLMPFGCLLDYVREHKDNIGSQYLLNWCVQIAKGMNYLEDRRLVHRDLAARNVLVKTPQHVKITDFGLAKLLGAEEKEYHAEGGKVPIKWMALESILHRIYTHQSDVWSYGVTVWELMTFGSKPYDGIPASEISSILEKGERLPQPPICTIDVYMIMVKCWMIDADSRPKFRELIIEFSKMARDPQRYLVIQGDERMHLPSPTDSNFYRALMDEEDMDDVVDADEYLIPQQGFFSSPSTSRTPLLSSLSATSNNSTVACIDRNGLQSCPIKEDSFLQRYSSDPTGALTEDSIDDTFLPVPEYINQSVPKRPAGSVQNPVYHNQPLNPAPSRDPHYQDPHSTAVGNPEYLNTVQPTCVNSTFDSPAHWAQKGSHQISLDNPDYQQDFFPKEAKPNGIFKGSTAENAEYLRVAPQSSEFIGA
# Summary of the method: as §1
# [19] = biological target: T19, SRC (Homo sapiens, UniProt P12931); details: 1 uM
# T19 construct: purchased Ambit KINOMEscan (DiscoverX)
# Summary of the method: as §1
# [20] = biological target: T20, BLK (Homo sapiens, UniProt P51451); details: 1 uM
# T20 construct: purchased Ambit KINOMEscan (DiscoverX)
# Summary of the method: as §1
# [21] = biological target: T21, PFCDPK1(P.falciparum) (Plasmodium falciparum, UniProt P62344); details: 1 uM
# T21 construct: purchased Ambit KINOMEscan (DiscoverX)
# Summary of the method: as §1
# [22] = biological target: T22, SGK3 (Homo sapiens, UniProt Q96BR1); details: SGK3, 1 uM
# T22 construct: purchased Ambit KINOMEscan (DiscoverX)
# Summary of the method: as §1
# [23] = biological target: T23, CLK1 (Homo sapiens, UniProt P49759); details: CLK1, 1 uM
# T23 construct: purchased Ambit KINOMEscan (DiscoverX)
# Summary of the method: as §1
# [24] = biological target: T24, CASK (Homo sapiens, UniProt O14936); details: 1 uM
# T24 construct: purchased Ambit KINOMEscan (DiscoverX)
# Summary of the method: as §1
# [25] = biological target: T25, MYLK4 (Homo sapiens, UniProt Q86YV6); details: MYLK4, 1 uM
# T25 construct: purchased Ambit KINOMEscan (DiscoverX)
# T25 sequence (Q86YV6 whole entry): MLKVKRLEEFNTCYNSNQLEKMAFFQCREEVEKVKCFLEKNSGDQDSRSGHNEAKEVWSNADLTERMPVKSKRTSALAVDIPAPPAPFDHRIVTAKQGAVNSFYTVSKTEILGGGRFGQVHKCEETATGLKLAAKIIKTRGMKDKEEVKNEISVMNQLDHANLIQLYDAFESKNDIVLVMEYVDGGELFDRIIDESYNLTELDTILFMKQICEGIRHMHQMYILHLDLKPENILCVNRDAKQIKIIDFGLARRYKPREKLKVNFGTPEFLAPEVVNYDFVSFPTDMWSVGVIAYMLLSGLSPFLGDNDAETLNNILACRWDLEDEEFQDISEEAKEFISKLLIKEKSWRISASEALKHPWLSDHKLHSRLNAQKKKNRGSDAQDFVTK
# Summary of the method: as §1
# [26] = biological target: T26, KIT(D816H) (Homo sapiens, UniProt P10721, D816H); details: 1 uM
# T26 construct: purchased Ambit KINOMEscan (DiscoverX)
# T26 sequence (P10721 26-976 D816H): as the sequence (P10721 26-976 A829P) above, with D791H, P804A counted along it
# Summary of the method: as §1
# [27] = biological target: T27, MEK5 (Homo sapiens, UniProt Q13163); details: MEK5, 1 uM
# T27 construct: purchased Ambit KINOMEscan (DiscoverX)
# Summary of the method: as §1
# [28] = biological target: T28, PIP5K1C (Homo sapiens, UniProt O60331); details: 1 uM
# T28 construct: purchased Ambit KINOMEscan (DiscoverX)
# T28 sequence (O60331 whole entry): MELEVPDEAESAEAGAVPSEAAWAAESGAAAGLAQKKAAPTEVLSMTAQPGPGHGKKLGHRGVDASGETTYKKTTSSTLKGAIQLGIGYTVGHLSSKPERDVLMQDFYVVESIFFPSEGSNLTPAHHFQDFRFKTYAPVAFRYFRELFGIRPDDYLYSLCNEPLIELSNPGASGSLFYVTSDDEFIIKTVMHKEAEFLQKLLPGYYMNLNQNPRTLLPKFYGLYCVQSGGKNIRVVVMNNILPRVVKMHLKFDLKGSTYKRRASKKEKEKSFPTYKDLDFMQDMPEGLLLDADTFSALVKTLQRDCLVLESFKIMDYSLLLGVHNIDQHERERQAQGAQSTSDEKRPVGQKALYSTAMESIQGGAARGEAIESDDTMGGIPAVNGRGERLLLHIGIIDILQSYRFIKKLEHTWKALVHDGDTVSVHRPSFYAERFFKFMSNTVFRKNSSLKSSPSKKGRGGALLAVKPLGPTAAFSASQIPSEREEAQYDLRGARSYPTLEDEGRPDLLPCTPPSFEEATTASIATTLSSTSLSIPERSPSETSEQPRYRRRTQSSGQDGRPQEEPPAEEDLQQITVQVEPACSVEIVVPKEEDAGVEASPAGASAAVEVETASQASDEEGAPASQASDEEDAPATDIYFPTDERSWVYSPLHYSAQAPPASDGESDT
# Summary of the method: as §1
# [29] = biological target: T29, EGFR(L861Q) (Homo sapiens, UniProt P00533, L861Q); details: 1 uM
# T29 construct: purchased Ambit KINOMEscan (DiscoverX)
# Summary of the method: as §1
# [30] = biological target: T30, TRPM6 (Homo sapiens, UniProt Q9BX84); details: TRPM6, 1 uM
# T30 construct: purchased Ambit KINOMEscan (DiscoverX)
# Summary of the method: as §1
# [31] = biological target: T31, FLT3 (Homo sapiens, UniProt P36888); details: FLT3, 1 uM
# T31 construct: purchased Ambit KINOMEscan (DiscoverX)
# Summary of the method: as §1
# [32] = biological target: T32, FLT3(K663Q) (Homo sapiens, UniProt P36888, K663Q); details: 1 uM
# T32 construct: purchased Ambit KINOMEscan (DiscoverX)
# Summary of the method: as §1
# [33] = biological target: T33, MST1R (Homo sapiens, UniProt Q04912); details: 1 uM
# T33 construct: purchased Ambit KINOMEscan (DiscoverX)
# Summary of the method: as §1
# [34] = biological target: T34, NEK3 (Homo sapiens, UniProt P51956); details: NEK3, 1 uM
# T34 construct: purchased Ambit KINOMEscan (DiscoverX)
# Summary of the method: as §1
# [35] = biological target: T35, EGFR(S752-I759del) (Homo sapiens, UniProt P00533, DEL752-759); details: 1 uM
# T35 construct: purchased Ambit KINOMEscan (DiscoverX)
# Summary of the method: as §1
# [36] = biological target: T36, CDKL1 (Homo sapiens, UniProt Q00532); details: CDKL1, 1 uM
# T36 construct: purchased Ambit KINOMEscan (DiscoverX)
# Summary of the method: as §1
# [37] = biological target: T37, EIF2AK1 (Homo sapiens, UniProt Q9BQI3); details: EIF2AK1, 1 uM
# T37 construct: purchased Ambit KINOMEscan (DiscoverX)
# Summary of the method: as §1
# [38] = biological target: T38, MKK7 (Homo sapiens, UniProt O14733); details: MKK7, 1 uM
# T38 construct: purchased Ambit KINOMEscan (DiscoverX)
# Summary of the method: as §1
# [39] = biological target: T39, ABL1(F317L)-nonphosphorylated (Homo sapiens, UniProt P00519, F317L); details: 1 uM
# T39 construct: purchased Ambit KINOMEscan (DiscoverX)
# Summary of the method: as §1
# T1 sequence (Q86Y07 whole entry): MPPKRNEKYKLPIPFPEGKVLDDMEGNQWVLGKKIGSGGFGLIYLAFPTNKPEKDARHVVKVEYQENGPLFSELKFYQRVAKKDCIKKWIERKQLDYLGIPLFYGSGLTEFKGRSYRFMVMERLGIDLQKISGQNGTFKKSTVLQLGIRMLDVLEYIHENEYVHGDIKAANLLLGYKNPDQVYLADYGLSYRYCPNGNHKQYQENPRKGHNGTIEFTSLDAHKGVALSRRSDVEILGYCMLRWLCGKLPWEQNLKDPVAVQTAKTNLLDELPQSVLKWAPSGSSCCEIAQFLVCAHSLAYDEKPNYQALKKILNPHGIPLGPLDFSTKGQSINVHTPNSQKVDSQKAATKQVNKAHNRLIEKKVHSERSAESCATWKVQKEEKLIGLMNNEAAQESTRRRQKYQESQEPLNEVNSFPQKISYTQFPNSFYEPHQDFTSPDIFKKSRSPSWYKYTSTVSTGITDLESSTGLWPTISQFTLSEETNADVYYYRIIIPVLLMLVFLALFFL
smiles,measurement,setting,value
COc1ccccc1Nc1nc(-c2ccc(OC)c(OC)c2)cc2nccn12 [BAY derivative 6],% binding compared to no inhibitor control,[1],88%
same,% binding compared to no inhibitor control,[2],100%
same,% binding compared to no inhibitor control,[3],100%
same,% binding compared to no inhibitor control,[4],100%
same,% binding compared to no inhibitor control,[5],100%
same,% binding compared to no inhibitor control,[6],100%
same,% binding compared to no inhibitor control,[7],35%
same,% binding compared to no inhibitor control,[8],86%
same,% binding compared to no inhibitor control,[9],100%
same,% binding compared to no inhibitor control,[10],100%
same,% binding compared to no inhibitor control,[11],100%
same,% binding compared to no inhibitor control,[12],94%
same,% binding compared to no inhibitor control,[13],92%
same,% binding compared to no inhibitor control,[14],99%
same,% binding compared to no inhibitor control,[15],76%
same,% binding compared to no inhibitor control,[16],50%
same,% binding compared to no inhibitor control,[17],100%
same,% binding compared to no inhibitor control,[18],48%
same,% binding compared to no inhibitor control,[19],51%
same,% binding compared to no inhibitor control,[20],43%
same,% binding compared to no inhibitor control,[21],67%
same,% binding compared to no inhibitor control,[22],100%
same,% binding compared to no inhibitor control,[23],100%
same,% binding compared to no inhibitor control,[24],100%
same,% binding compared to no inhibitor control,[25],100%
same,% binding compared to no inhibitor control,[26],61%
same,% binding compared to no inhibitor control,[27],100%
same,% binding compared to no inhibitor control,[28],71%
same,% binding compared to no inhibitor control,[29],68%
same,% binding compared to no inhibitor control,[30],95%
same,% binding compared to no inhibitor control,[31],52%
same,% binding compared to no inhibitor control,[32],63%
same,% binding compared to no inhibitor control,[33],100%
same,% binding compared to no inhibitor control,[34],100%
same,% binding compared to no inhibitor control,[35],72%
same,% binding compared to no inhibitor control,[36],100%
same,% binding compared to no inhibitor control,[37],88%
same,% binding compared to no inhibitor control,[38],86%
same,% binding compared to no inhibitor control,[39],100%
